Experimental data taken from patent publication US10065948B2, “Histone deacetylase inhibitors and compositions and methods of use thereof” (CHDI Foundation, Inc., priority 2014, dated 2018).

Assays:
[1] = target: Histone Deacetylase 4 (HDAC4) catalytic domain (Homo sapiens (Human), UniProt P56524); test: Biochemical HDAC inhibition assay, fluorogenic substrate Boc-Lys(Tfa)-AMC
Protocol: The potency of compounds is quantified by measuring the Histone Deacetylase 4 (HDAC4) catalytic domain enzymatic activity using the fluorogenic substrate, Boc-Lys(Tfa)-AMC. The substrate is deacetylated to Boc-Lys-AMC by HDAC4. Cleavage by trypsin results in the release of the fluorophore AMC from the deacetylated substrate. The fluorescence of the sample is directly related to the histone deacetylase activity in the sample.
Stocks of 60 μL aliquots of the 10 mM compound in DMSO are prepared and stored at −20° C. From one stock aliquot of each compound to be tested and the reference compound, a 16-point serial dilution is prepared according to Table 1 using a 125 μL 16-channel Matrix multi-channel pipette (Matrix Technologies Ltd).
2 μL (200×) of each diluted solution and each control (full activity: 100% DMSO alone or full inhibition 1 mM) is stamped into V-bottomed polypropylene 384-well compound plates using either the Bravo (384-well head from Agilent) or 12.5 μL 16-channel Matrix multi-channel pipette (Matrix Technologies Ltd). Each well with the 200× compound solution is diluted 1:20 by the addition of 38 μL assay buffer+DMSO (10.5% DMSO, 45 mM Tris-HCl, 123 mM NaCl, 2.4 mM KCl, and 0.9 mM MgCl2 at pH 8.0 and equilibrated to room temperature).
The HDAC4 catalytic domain enzyme is human catalytic domain HDAC4 protein (amino acids 648-1032) with a C-terminal 6× histidine tag, produced by BioFocus. A working solution of enzyme is prepared from a 500 μg/mL stock aliquot of HDAC4 catalytic domain (thawed on ice) diluted to 0.2 μg/mL with assay buffer (50 mM Tris-HCl, 137 mM NaCl, 2.7 mM KCl, and 1 mM MgCl2 at pH 8 and equilibrated to room temperature) just prior to the addition of the enzyme to the assay.
5× (50 μM) substrate is prepared just prior to the addition to the assay. A 1 mM substrate stock is made by diluting a 100 mM Boc-Lys(Tfa)-AMC in DMSO solution 1:100 by adding it drop-wise to assay buffer (equilibrated to room temperature) while vortexing at slow speed to prevent precipitation. The 5× substrate is prepared by diluting the 1 mM substrate solution 1:20 by adding it drop-wise to assay buffer (equilibrated to room temperature) while vortexing at slow speed to prevent precipitation.
3× (30 μM) Developer/Stop Solution is prepared just prior to addition to the plate by diluting a stock solution of 10 mM reference compound 1:333 in 25 mg/mL trypsin (PAA Laboratories Ltd.) equilibrated to room temperature.
5 μL of each solution of 1:20 diluted compound from above is transferred to a clear bottomed, black, 384-well assay plate using the Bravo or the Janus (384-well MDT head from Perkin Elmer). Using a 16-channel Matrix multi-channel pipette, 35 μL of the working solution of HDAC4 catalytic domain enzyme (0.2 μg/mL in assay buffer) is transferred to the assay plate. […] The assay plate is then shaken for two minutes on an orbital shaker at 900 rpm (rotations per minute). Next the plate is incubated for 15 minutes at 37° C. The reaction is stopped by adding 25 μL of 3× (30 μM) developer/stop solution to the assay plates using either the Bravo, Janus or a 16-channel Matrix multi-channel pipette. Assay plates are then shaken for 5 minutes on an orbital shaker at 1200 rpm. Next, the assay plates are incubated at 37° C. for 1 hour in a tissue culture incubator. Finally, the fluorescence is measured (Excitation: 355 nm, Emission: 460 nm) using PerkinElmer EnVision in top read mode.

[2] = system: cellular histone deacetylase enzymatic activity in Jurkat E6-1 cells; test: Inhibition of cellular HDAC activity, Boc-Lys(Tfa)-AMC substrate (Cell Lys-TFA); assay type: cell-based
Protocol: The potency of the compounds is quantified by measuring the cellular histone deacetylase enzymatic activity using the fluorogenic substrate, Boc-Lys(Tfa)-AMC. After penetration in Jurkat E6-1 cells, the substrate is deacetylated to Boc-Lys-AMC. After cell lysis and cleavage by trypsin, the fluorophore AMC is released from the deacetylated substrate only. The fluorescence of the sample is directly related to the histone deacetylase activity in the sample.
Jurkat E6.1 cells are cultured according to standard cell culture protocols in Jurkat E6.1 Growth Media (RPMI without phenol red, 10% FBS, 10 mM HEPES, and 1 mM Sodium Pyruvate). Jurkat E6.1 cells are counted using a Coulter Counter and resuspended in Jurkat E6.1 growth media at a concentration of 75,000 cells/35 μL. 35 μL or 75,000 cells is seeded into Greiner microtitre assay plates. The plates are then incubated at 37° C. and 5% CO2 while other assay components are being prepared.
Stocks of 70 μL aliquots of the 10 mM compound in DMSO are prepared and stored at −20° C. From one stock aliquot of each compound to be tested and the reference compound, a 16-point serial dilution is prepared according to Table 1 using a 125 μL 16-channel Matrix multi-channel pipette.
2 μL (200×) of each diluted solution and each control (full activity: 100% DMSO alone or full inhibition 1 mM) is stamped into V-bottom polypropylene 384-well compound plates using either the Bravo, Janus, or 12.5 μL 16-channel Matrix multi-channel pipette. Each well with the 200× compound solution is diluted 1:20 by the addition of 38 μL Jurkat assay buffer+DMSO (9.5% DMSO, RPMI without phenol red, 0.09% FBS, 9 mM Hepes, and 0.9 mM Sodium Pyruvate equilibrated to room temperature)
5× (500 μM) substrate is prepared just prior to the addition to the assay. The 5× substrate is prepared by diluting a 100 mM Boc-Lys(Tfa)-AMC in DMSO solution 1:200 by adding it drop-wise to Jurkat assay medium (RPMI without phenol red, 0.1% FBS, 10 mM Hepes, and 1 mM Sodium Pyruvate equilibrated to 37° C.) while vortexing at slow speed to prevent precipitation.
10 mL of 3× lysis buffer is prepared with 8.8 ml of 3× stock lysis buffer (50 mM Tris-HCl, pH 8.0, 137 mM NaCl, 2.7 mM KCl, 1 mM MgCl2, 1% Nonidet P40 Substitute equilibrated to room temperature) and 1.2 mL of 3 mg/mL Trypsin equilibrated to room temperature.
5 μL of each solution of 1:20 diluted compound from above is transferred to the Greiner microtitre assay plates with 75,000 cells/well using the Bravo. Cells are then incubated for 2 hours at 37° C. and 5% CO2. […] The cells are then incubated for 3 hours at 37° C. and 5% CO2. Next, 25 μL of 3× lysis buffer is added to each well using either the 125 μL 16 channel pipette or the Bravo. The assay plate is then incubated overnight (15-16 hours) at 37° C. and 5% CO2. The following day, the plates are shaken on an orbital shaker for 1 minute at 900 rpm. Finally the top read fluorescence (Excitation: 355 nm, Emission: 460 nm) is measured using PerkinElmer EnVision.

[3] = system: cellular histone deacetylase activity (Lys-Ac); test: Inhibition of cellular HDAC activity (Cell Lys-Ac); assay type: cell-based; settings: Lys-Ac substrate
[4] = Homo sapiens, Jurkat E6.1, Lys-TFA substrate

Sequence of Histone Deacetylase 4 (HDAC4) catalytic domain (P56524 648-1032): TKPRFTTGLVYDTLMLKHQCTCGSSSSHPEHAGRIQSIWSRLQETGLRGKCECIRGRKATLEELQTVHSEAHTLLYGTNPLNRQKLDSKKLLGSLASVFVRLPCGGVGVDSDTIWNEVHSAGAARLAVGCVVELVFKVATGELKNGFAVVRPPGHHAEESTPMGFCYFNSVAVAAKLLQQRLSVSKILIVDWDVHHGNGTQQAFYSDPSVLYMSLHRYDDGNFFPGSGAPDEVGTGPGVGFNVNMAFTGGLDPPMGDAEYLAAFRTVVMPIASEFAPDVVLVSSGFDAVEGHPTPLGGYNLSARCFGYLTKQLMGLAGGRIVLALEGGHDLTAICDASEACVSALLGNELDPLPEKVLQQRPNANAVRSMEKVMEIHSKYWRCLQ

Compound	IC50 [1] [nM]	IC50 ([2]; Lys-TFA substrate) [nM]	IC50 [3] [nM]	IC50 [2, 4] [nM]
Cc1c(F)cccc1C1(C(=O)NO)CCc2cn(CC(F)(F)F)nc2CC1 (single isomer, unassigned) [Example 84, E1-(abs)-6-(3-Fluoro-2-methylphenyl)-N-hydroxy-2-(2,2,2-trifluoroethyl)-2,4,5,6,7,8-hexahydrocyclohepta[c]pyrazole-6-carboxamide]	480		> 50000	1400
Cc1c(F)cccc1C1(C(=O)NO)CCc2cn(CC(F)(F)F)nc2CC1 (single isomer, unassigned) [Example 85, E2-(abs)-6-(3-fluoro-2-methylphenyl)-N-hydroxy-2-(2,2,2-trifluoroethyl)-2,4,5,6,7,8-hexahydrocyclohepta[c]pyrazole-6-carboxamide]	790	1800	> 50000	
Cc1c(F)cccc1[C@]1(C(=O)NO)Cc2cnn(-c3ccccc3)c2C1 [Example 1, (S)-5-(3-Fluoro-2-methylphenyl)-N-hydroxy-1-phenyl-1,4,5,6-tetrahydrocyclopenta[c]pyrazole-5-carboxamide]	28		> 50000	59
Cc1c(F)cccc1[C@]1(C(=O)NO)Cc2cnn(-c3ccccc3F)c2C1 [Example 3, (S)-5-(3-Fluoro-2-methylphenyl)-1-(2-fluorophenyl)-N-hydroxy-1,4,5,6-tetrahydrocyclopenta[c]pyrazole-5-carboxamide]	17		> 50000	33
O=C(NO)[C@@]1(c2ccccc2)CCc2ccccc21 [Example 88, E2-(abs)-N-hydroxy-1-phenyl-2,3-dihydro-1H-indene-1-carboxamide]			> 50000	> 50000
O=C(NO)C1(c2ccccc2)Cc2ccccc2C1 [Example 89, N-Hydroxy-2-phenyl-2,3-dihydro-1H-indene-2-carboxamide]			> 50000	> 50000
Cc1c(F)cccc1[C@]1(C(=O)NO)Cc2cnn(-c3ccc(F)cc3Cl)c2C1 [Example 90, (S)-1-(2-Chloro-4-fluorophenyl)-5-(3-fluoro-2-methylphenyl)-N-hydroxy-1,4,5,6-tetrahydrocyclopenta[c]pyrazole-5-carboxamide]			> 50000	15

The remaining lines, values ahead:

IC50 [1] [nM]	IC50 ([2]; Lys-TFA substrate) [nM]	IC50 [3] [nM]	IC50 [2, 4] [nM]	Compound
820	72	> 50000		Cc1c(F)cccc1C1(C(=O)NO)CCc2c(cnn2-c2ccccc2)C1 (single isomer, unassigned) [Example 31, E1-(abs)-5-(3-Fluoro-2-methylphenyl)-N-hydroxy-1-phenyl-4,5,6,7-tetrahydro-1H-indazole-5-carboxamide]
17300	2900	> 50000		Cc1c(F)cccc1C1(C(=O)NO)CCc2c(cnn2-c2ccccc2)C1 (single isomer, unassigned) [Example 32, E2-(abs)-5-(3-fluoro-2-methylphenyl)-N-hydroxy-1-phenyl-4,5,6,7-tetrahydro-1H-indazole-5-carboxamide]
480	120	> 50000		Cc1c(F)cccc1C1(C(=O)NO)Cc2nc(-c3ccccc3F)sc2C1 (single isomer, unassigned) [Example 61, E1-(abs)-5-(3-Fluoro-2-methylphenyl)-2-(2-fluorophenyl)-N-hydroxy-5,6-dihydro-4H-cyclopenta[d]thiazole-5-carboxamide]
193	49	> 50000		Cc1c(F)cccc1C1(C(=O)NO)Cc2nc(-c3ccccc3F)sc2C1 (single isomer, unassigned) [Example 62, E2-(abs)-5-(3-fluoro-2-methylphenyl)-2-(2-fluorophenyl)-N-hydroxy-5,6-dihydro-4H-cyclopenta[d]thiazole-5-carboxamide]
780	540	> 50000		Cc1cc(F)ccc1-c1nc2c(s1)CC(C(=O)NO)(c1cccc(F)c1C)C2 (single isomer, unassigned) [Example 74, E1-(abs)-5-(3-Fluoro-2-methylphenyl)-2-(4-fluoro-2-methylphenyl)-N-hydroxy-5,6-dihydro-4H-cyclopenta[d]thiazole-5-carboxamide]
270	51	> 50000		Cc1cc(F)ccc1-c1nc2c(s1)CC(C(=O)NO)(c1cccc(F)c1C)C2 (single isomer, unassigned) [Example 75, E2-(abs)-5-(3-Fluoro-2-methylphenyl)-2-(4-fluoro-2-methylphenyl)-N-hydroxy-5,6-dihydro-4H-cyclopenta[d]thiazole-5-carboxamide]
68	36	> 50000		Cc1c(F)cccc1C1(C(=O)NO)Cc2nc(-c3cnn(C)c3C)sc2C1 (single isomer, unassigned) [Example 76, E1-(abs)-2-(1,5-Dimethyl-1H-pyrazol-4-yl)-5-(3-fluoro-2-methylphenyl)-N-hydroxy-5,6-dihydro-4H-cyclopenta[d]thiazole-5-carboxamide]
200	128	> 50000		Cc1c(F)cccc1C1(C(=O)NO)Cc2nc(-c3cnn(C)c3C)sc2C1 (single isomer, unassigned) [Example 77, E2-(abs)-2-(1,5-dimethyl-1H-pyrazol-4-yl)-5-(3-fluoro-2-methylphenyl)-N-hydroxy-5,6-dihydro-4H-cyclopenta[d]thiazole-5-carboxamide]
